Earlier results, collected in patent publication US20250369985A1, “METHOD FOR DETERMINING THE THERAPEUTIC REGIMEN FOR AN INDIVIDUAL AND ITS USE” (MOSAIQUES DIAGNOSTICS AND THERAPEUTICS AG, priority 2022, published 2025).
Read-outs that look alike come from different tables or passages of the source.

System: urinary proteins/peptides (71 biomarkers of CD71 classifier)
[1] = peptide 99900220 (Seq. ID No. 1)
[2] = peptide 99900467 (Seq. ID No. 2)
[3] = peptide 99901399 (Seq. ID No. 3)
[4] = peptide 99902592 (Seq. ID No. 4)
[5] = peptide 99903025 (Seq. ID No. 5)
[6] = peptide 99904405 (Seq. ID No. 6)
[7] = peptide 99904666 (Seq. ID No. 7)
[8] = peptide 99904862 (Seq. ID No. 8)
[9] = peptide 99905044 (Seq. ID No. 9)
[10] = peptide 99905259 (Seq. ID No. 10)
[11] = peptide 99905274 (Seq. ID No. 11)
[12] = peptide 99905379 (Seq. ID No. 12)
[13] = peptide 99905423 (Seq. ID No. 13)
[14] = peptide 99905509 (Seq. ID No. 14)
[15] = peptide 99905551 (Seq. ID No. 15)
[16] = peptide 99906176 (Seq. ID No. 16)
[17] = peptide 99907275 (Seq. ID No. 17)
[18] = peptide 99907807 (Seq. ID No. 18)
[19] = peptide 99908755 (Seq. ID No. 19)
[20] = peptide 99908795 (Seq. ID No. 20)
[21] = peptide 99908916 (Seq. ID No. 21)
[22] = peptide 99909059 (Seq. ID No. 22)
[23] = peptide 99910002 (Seq. ID No. 23)
[24] = peptide 99910032 (Seq. ID No. 24)
[25] = peptide 99910407 (Seq. ID No. 25)
[26] = peptide 99910483 (Seq. ID No. 26)
[27] = peptide 99910554 (Seq. ID No. 27)
[28] = peptide 99910883 (Seq. ID No. 28)
[29] = peptide 99911002 (Seq. ID No. 29)
[30] = peptide 99911193 (Seq. ID No. 30)
[31] = peptide 99911415 (Seq. ID No. 31)
[32] = peptide 99911559 (Seq. ID No. 32)
[33] = peptide 99911777 (Seq. ID No. 33)
[34] = peptide 99912101 (Seq. ID No. 34)
[35] = peptide 99912211 (Seq. ID No. 35)
[36] = peptide 99912366 (Seq. ID No. 36)
[37] = peptide 99912411 (Seq. ID No. 37)
[38] = peptide 99912661 (Seq. ID No. 38)
[39] = peptide 99913200 (Seq. ID No. 39)
[40] = peptide 99913322 (Seq. ID No. 40)
[41] = peptide 99913825 (Seq. ID No. 41)
[42] = peptide 99914211 (Seq. ID No. 42)
[43] = peptide 99914445 (Seq. ID No. 43)
[44] = peptide 99914876 (Seq. ID No. 44)
[45] = peptide 99914887 (Seq. ID No. 45)
[46] = peptide 99914893 (Seq. ID No. 46)
[47] = peptide 99914935 (Seq. ID No. 47)
[48] = peptide 99915015 (Seq. ID No. 48)
[49] = peptide 99915755 (Seq. ID No. 49)
[50] = peptide 99915778 (Seq. ID No. 50)
[51] = peptide 99915883 (Seq. ID No. 51)
[52] = peptide 99916170 (Seq. ID No. 52)
[53] = peptide 99916177 (Seq. ID No. 53)
[54] = peptide 99916611 (Seq. ID No. 54)
[55] = peptide 99916615 (Seq. ID No. 55)
[56] = peptide 99916966 (Seq. ID No. 56)
[57] = peptide 99917047 (Seq. ID No. 57)
[58] = peptide 99917221 (Seq. ID No. 58)
[59] = peptide 99917280 (Seq. ID No. 59)
[60] = peptide 99917288 (Seq. ID No. 60)
[61] = peptide 99917419 (Seq. ID No. 61)
[62] = peptide 99917505 (Seq. ID No. 62)
[63] = peptide 99917596 (Seq. ID No. 63)
[64] = peptide 99917626 (Seq. ID No. 64)
[65] = peptide 99917690 (Seq. ID No. 65)
[66] = peptide 99917825 (Seq. ID No. 66)
[67] = peptide 99917890 (Seq. ID No. 67)
[68] = peptide 99917947 (Seq. ID No. 68)
[69] = peptide 99918831 (Seq. ID No. 69)
[70] = peptide 99918906 (Seq. ID No. 70)
[71] = peptide 99918909 (Seq. ID No. 71)

CC(=O)S[C@@H]1CC2=CC(=O)CC[C@]2(C)[C@H]2CC[C@@]3(C)[C@@H](CC[C@@]34CCC(=O)O4)[C@H]12 [drug B, Spironolactone]
f (fold-change of the abundance) [1]: 1 | f (fold-change of the abundance) [2]: 1 | f (fold-change of the abundance) [3]: 1 | f (fold-change of the abundance) [4]: 1 | f (fold-change of the abundance) [5]: 1 | f (fold-change of the abundance) [6]: 1 | f (fold-change of the abundance) [7]: 1 | f (fold-change of the abundance) [8]: 1 | f (fold-change of the abundance) [9]: 1 | f (fold-change of the abundance) [10]: 1 | f (fold-change of the abundance) [11]: 1 | f (fold-change of the abundance) [12]: 1 | f (fold-change of the abundance) [13]: 1 | f (fold-change of the abundance) [14]: 0.77 | f (fold-change of the abundance) [15]: 1.97 | f (fold-change of the abundance) [16]: 1 | f (fold-change of the abundance) [17]: 1 | f (fold-change of the abundance) [18]: 1 | f (fold-change of the abundance) [19]: 1 | f (fold-change of the abundance) [20]: 1 | f (fold-change of the abundance) [21]: 1 | f (fold-change of the abundance) [22]: 1 | f (fold-change of the abundance) [23]: 1 | f (fold-change of the abundance) [24]: 1 | f (fold-change of the abundance) [25]: 1 | f (fold-change of the abundance) [26]: 0.78 | f (fold-change of the abundance) [27]: 1 | f (fold-change of the abundance) [28]: 1 | f (fold-change of the abundance) [29]: 1 | f (fold-change of the abundance) [30]: 1 | f (fold-change of the abundance) [31]: 1 | f (fold-change of the abundance) [32]: 1 | f (fold-change of the abundance) [33]: 1 | f (fold-change of the abundance) [34]: 1 | f (fold-change of the abundance) [35]: 1 | f (fold-change of the abundance) [36]: 1.5 | f (fold-change of the abundance) [37]: 1 | f (fold-change of the abundance) [38]: 1 | f (fold-change of the abundance) [39]: 1.21 | f (fold-change of the abundance) [40]: 1 | f (fold-change of the abundance) [41]: 0.65 | f (fold-change of the abundance) [42]: 1 | f (fold-change of the abundance) [43]: 1 | f (fold-change of the abundance) [44]: 1.5 | f (fold-change of the abundance) [45]: 1 | f (fold-change of the abundance) [46]: 1 | f (fold-change of the abundance) [47]: 0.72 | f (fold-change of the abundance) [48]: 1 | f (fold-change of the abundance) [49]: 1 | f (fold-change of the abundance) [50]: 1 | f (fold-change of the abundance) [51]: 1 | f (fold-change of the abundance) [52]: 1 | f (fold-change of the abundance) [53]: 1.88 | f (fold-change of the abundance) [54]: 1 | f (fold-change of the abundance) [55]: 1 | f (fold-change of the abundance) [56]: 1 | f (fold-change of the abundance) [57]: 0.82 | f (fold-change of the abundance) [58]: 1 | f (fold-change of the abundance) [59]: 1 | f (fold-change of the abundance) [60]: 1 | f (fold-change of the abundance) [61]: 1 | f (fold-change of the abundance) [62]: 1 | f (fold-change of the abundance) [63]: 1 | f (fold-change of the abundance) [64]: 1 | f (fold-change of the abundance) [65]: 1 | f (fold-change of the abundance) [66]: 1 | f (fold-change of the abundance) [67]: 1 | f (fold-change of the abundance) [68]: 1 | f (fold-change of the abundance) [69]: 1.27 | f (fold-change of the abundance) [70]: 1 | f (fold-change of the abundance) [71]: 0.62

Cc1ccc([C@@H]2O[C@H](CO)[C@@H](O)[C@H](O)[C@H]2O)cc1Cc1ccc(-c2ccc(F)cc2)s1 [drug C]
f (fold-change of the abundance) [1]: 1 | f (fold-change of the abundance) [2]: 1 | f (fold-change of the abundance) [3]: 1 | f (fold-change of the abundance) [4]: 1 | f (fold-change of the abundance) [5]: 1 | f (fold-change of the abundance) [6]: 1.22 | f (fold-change of the abundance) [7]: 1 | f (fold-change of the abundance) [8]: 1 | f (fold-change of the abundance) [9]: 1 | f (fold-change of the abundance) [10]: 1 | f (fold-change of the abundance) [11]: 1.86 | f (fold-change of the abundance) [12]: 1 | f (fold-change of the abundance) [13]: 1 | f (fold-change of the abundance) [14]: 1 | f (fold-change of the abundance) [15]: 1 | f (fold-change of the abundance) [16]: 1 | f (fold-change of the abundance) [17]: 1 | f (fold-change of the abundance) [18]: 1.84 | f (fold-change of the abundance) [19]: 1 | f (fold-change of the abundance) [20]: 1 | f (fold-change of the abundance) [21]: 1 | f (fold-change of the abundance) [22]: 1 | f (fold-change of the abundance) [23]: 1 | f (fold-change of the abundance) [24]: 1 | f (fold-change of the abundance) [25]: 1 | f (fold-change of the abundance) [26]: 1 | f (fold-change of the abundance) [27]: 1 | f (fold-change of the abundance) [28]: 1.71 | f (fold-change of the abundance) [29]: 1 | f (fold-change of the abundance) [30]: 1 | f (fold-change of the abundance) [31]: 1 | f (fold-change of the abundance) [32]: 1.33 | f (fold-change of the abundance) [33]: 1 | f (fold-change of the abundance) [34]: 1 | f (fold-change of the abundance) [35]: 1 | f (fold-change of the abundance) [36]: 1 | f (fold-change of the abundance) [37]: 1 | f (fold-change of the abundance) [38]: 1 | f (fold-change of the abundance) [39]: 1 | f (fold-change of the abundance) [40]: 1.86 | f (fold-change of the abundance) [41]: 1 | f (fold-change of the abundance) [42]: 1 | f (fold-change of the abundance) [43]: 0.64 | f (fold-change of the abundance) [44]: 1 | f (fold-change of the abundance) [45]: 1 | f (fold-change of the abundance) [46]: 1 | f (fold-change of the abundance) [47]: 1.55 | f (fold-change of the abundance) [48]: 1 | f (fold-change of the abundance) [49]: 1 | f (fold-change of the abundance) [50]: 1 | f (fold-change of the abundance) [51]: 1 | f (fold-change of the abundance) [52]: 1 | f (fold-change of the abundance) [53]: 1 | f (fold-change of the abundance) [54]: 0.79 | f (fold-change of the abundance) [55]: 0.83 | f (fold-change of the abundance) [56]: 1 | f (fold-change of the abundance) [57]: 1 | f (fold-change of the abundance) [58]: 1 | f (fold-change of the abundance) [59]: 1 | f (fold-change of the abundance) [60]: 1 | f (fold-change of the abundance) [61]: 1 | f (fold-change of the abundance) [62]: 1 | f (fold-change of the abundance) [63]: 1 | f (fold-change of the abundance) [64]: 1 | f (fold-change of the abundance) [65]: 0.63 | f (fold-change of the abundance) [66]: 2.01 | f (fold-change of the abundance) [67]: 1 | f (fold-change of the abundance) [68]: 1 | f (fold-change of the abundance) [69]: 1 | f (fold-change of the abundance) [70]: 1 | f (fold-change of the abundance) [71]: 1
